By IC50 is commonly meant the concentration at which inhibition is half-maximal.

For this experiment, the target named is Dephosphorylated BTK (Homo sapiens, UniProt Q06187). In words: Test of activity inhibition against dephosphorylated BTK (mobility shift assay).
Dephosphorylated BTK, sequence (Q06187 whole entry): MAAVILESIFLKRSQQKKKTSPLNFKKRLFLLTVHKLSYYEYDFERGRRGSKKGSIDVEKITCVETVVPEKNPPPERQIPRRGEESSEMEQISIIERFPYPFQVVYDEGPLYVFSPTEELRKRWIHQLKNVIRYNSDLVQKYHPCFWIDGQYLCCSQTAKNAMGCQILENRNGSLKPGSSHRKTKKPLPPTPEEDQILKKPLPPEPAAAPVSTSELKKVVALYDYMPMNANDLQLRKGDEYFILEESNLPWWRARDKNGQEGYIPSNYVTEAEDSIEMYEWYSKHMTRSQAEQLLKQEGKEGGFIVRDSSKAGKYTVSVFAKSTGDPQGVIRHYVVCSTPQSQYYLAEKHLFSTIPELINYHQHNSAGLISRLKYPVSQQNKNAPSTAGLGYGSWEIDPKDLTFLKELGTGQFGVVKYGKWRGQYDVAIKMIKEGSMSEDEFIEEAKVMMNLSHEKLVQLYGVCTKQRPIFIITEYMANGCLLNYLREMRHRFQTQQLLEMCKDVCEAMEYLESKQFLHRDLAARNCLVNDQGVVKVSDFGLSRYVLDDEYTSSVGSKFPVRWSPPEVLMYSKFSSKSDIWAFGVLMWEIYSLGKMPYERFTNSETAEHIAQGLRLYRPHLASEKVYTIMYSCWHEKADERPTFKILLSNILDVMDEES
Procedure: Kinase activity was measured by a mobility shift assay (MSA) method using QuickScout Screening Assist (trademark) MSA (commercially available kit, manufactured by Carna Biosciences, Inc.). FITC-labeled SRCtide peptide supplied with the kit was used as a substrate of a kinase reaction.
IC50 value was calculated by regression analysis of the inhibition ratio and the test compound concentration (logarithm).
Dephosphorylated BTK was obtained by adding a A protein phosphatase (Code No. P0753S, manufactured by New England BioLabs Inc.) and MnCl2 to a biotinylated BTK protein BTN-BTK (manufactured by Carna Biosciences, Inc.) enzyme solution so as to adjust the concentrations to 10 U/μg and 2 mM, respectively, reacting the mixture at 4° C. overnight, removing the A protein phosphatase through anti-[sequence]-tag antibody agarose gel chromatography, and performing buffer exchange using 10DG Desalting Column.
For the compound `CCN(CC)c1ccc(Nc2nc(N)nc(-c3cccc(N4CCc5cc(C6CC6)cc(F)c5C4=O)c3CO)n2)cc1` [Example 245, 2-[3-(4-Amino-6-{[4-(di-ethylamino)phenyl]a-mino}-1,3,5-triazin-2-yl)-2-(hydroxymethyl)phenyl]-6-cyclopropyl-8-fluoro-3,4-dihydro-isoquinolin-1(2H)-one], the IC50 turned out to be 5.6 nM.

Take `CN(CCO)c1ccc(Nc2nc(N)nc(-c3cccc(N4CCc5cc(C6CC6)cc(F)c5C4=O)c3CO)n2)cc1` [Example 246, 2-{3-[4-Amino-6-({4-[(2-hydroxyethyl)(meth-yl)amino]phenyl}amino)-1,3,5-triazin-2-yl]-2-(hydroxymethyl)phe-nyl}-6-cyclopropyl-8-fluoro-3,4-dihydroiso-quinolin-1(2H)-one]: the IC50 was found to be 2.7 nM.

On to `Nc1nc(Nc2ccn(CC3CC3)c2)nc(-c2cccc(N3CCc4cc(C5CC5)cc(F)c4C3=O)c2CO)n1` [Example 248, 2-[3-(4-Amino-6-{[1-(cyclo-propylmethyl)-1H-pyrrol-3-yl]amino}-1,3,5-triazin-2-yl)-2-(hydroxymethyl)phenyl]-6-cyclopropyl-8-fluoro-3,4-dihydroisoquinolin-1(2H)-one], for which the concentration for half-maximal inhibition (IC50) was found to be 3.2 nM.

Take `Nc1nc(Nc2ccn([C@H]3CCOC3)c2)nc(-c2cccc(N3CCc4cc(C5CC5)cc(F)c4C3=O)c2CO)n1` [Example 249, (S)-2-[3-(4-Amino-6-{[1-(tetrahydrofuran-3-yl)-1H-pyrrol-3-yl]ami-no}-1,3,5-triazin-2-yl)-2-(hydroyxmethyl)phenyl]-6-cyclopropyl-8-fluoro-3,4-dihydro-isoquinolin-1(2H)-one]: the concentration for half-maximal inhibition (IC50) was 1 nM.

Consider `Nc1nc(Nc2ccn([C@@H]3CCOC3)c2)nc(-c2cccc(N3CCc4cc(C5CC5)cc(F)c4C3=O)c2CO)n1` [Example 250, (R)-2-[3-(4-Amino-6-{[1-(tetrahydrofuran-3-yl)-1H-pyrrol-3-yl]ami-no}-1,3,5-triazin-2-yl)-2-(hydroyxmethyl)phenyl]-6-cyclopropyl-8-fluoro-3,4-dihydro-isoquinolin-1(2H)-one], for which the IC50 was 1.5 nM.

Consider `Cn1cc(Nc2nc(N)nc(-c3cccc(N4CCc5cc(C6CC6)cc(F)c5C4=O)c3CO)n2)cc1C(N)=O` [Example 251, 4-({4-Amino-6-[3-(6-cyclo-propyl-8-fluoro-1-oxo-3,4-dihydroisoquino-lin-2(1H)-yl)-2-(hydroxy-methyl)phenyl]-1,3,5-triazin-2-yl}ami-no)-1-methyl-1H-pyr-role-2-carboxamide], for which the half-inhibitory concentration (IC50) stood at 0.4 nM.

`CN1CCC(n2cc(Nc3nc(N)nc(-c4cccc(N5CCc6cc(C7CC7)cc(F)c6C5=O)c4CO)n3)cn2)CC1` [Example 252, 2-[3-(4-Amino-6-{[1-(1-methylpiperidin-4-yl)-1H-pyrazol-4-yl]ami-no}-1,3,5-triazin-2-yl)-2-(hydroxymethyl)phenyl]-6-cyclopropyl-8-fluoro-3,4-dihydro-isoquinolin-1(2H)-one]: the IC50 worked out at 0.8 nM.

Regarding `Nc1nc(Nc2cnn(CC(=O)N3CCOCC3)c2)nc(-c2cccc(N3CCc4cc(C5CC5)cc(F)c4C3=O)c2CO)n1` [Example 253, 2-[3-(4-Amino-6-{[1-(2-morpholino-2-oxoeth-yl)-1H-pyrazol-4-yl]ami-no}-1,3,5-triazin-2-yl)-2-(hydroxymethyl)phenyl]-6-cyclopropyl-8-fluoro-3,4-dihydro-isoquinolin-1(2H)-one], the IC50 was determined as 0.8 nM.

As to `Nc1nc(Nc2ccn(CC3CCOCC3)c2)nc(-c2cccc(N3CCc4cc(C5CC5)cc(F)c4C3=O)c2CO)n1` [Example 254, 2-{3-[4-Amino-6-({1-[(tetra-hydro-2H-pyran-4-yl)methyl]-1H-pyrrol-3-yl}amino)-1,3,5-tri-azin-2-yl]-2-(hydroxy-methyl)phenyl}-6-cyclo-propyl-8-fluoro-3,4-dihydroisoquinolin-1(2H)-one], the IC50 worked out at 1.4 nM.

For `NC(=O)c1cc(Nc2nc(N)nc(-c3cccc(N4CCc5cc(C6CC6)cc(F)c5C4=O)c3CO)n2)c[nH]1` [Example 255, 4-({4-Amino-6-[3-(6-cyclo-propyl-8-fluoro-1-oxo-3,4-dihydroisoquino-lin-2(1H)-yl)-2-(hydroxy-methyl)phenyl]-1,3,5-triazin-2-yl}ami-no)-1H-pyrrole-2-carboxamide], the IC50 turned out to be 0.5 nM.

`Nc1nc(Nc2cnn(CC3CCOCC3)c2)nc(-c2cccc(N3CCc4cc(C5CC5)cc(F)c4C3=O)c2CO)n1` [Example 257, 2-{3-[4-Amino-6-({1-[(tetra-hydro-2H-pyran-4-yl)methyl]-1H-pyrazol-4-yl}amino)-1,3,5-triazin-2-yl]-2-(hydroxy-methyl)phenyl}-6-cyclo-propyl-8-fluoro-3,4-dihydroisoquinolin-1(2H)-one]: the IC50 came out at 0.6 nM.

In the case of `Nc1nc(Nc2cnn(CC(=O)N3CCCC3)c2)nc(-c2cccc(N3CCc4cc(C5CC5)cc(F)c4C3=O)c2CO)n1` [Example 260, 2-{3-[4-Amino-6-({1-[2-oxo-2-(pyrrolidin-1-yl)ethyl]-1H-pyrazol-4-yl}amino)-1,3,5-tri-azin-2-yl]-2-(hydroxy-methyl)phenyl}-6-cyclo-propyl-8-fluoro-3,4-dihydroisoquinolin-1 (2H)-one], the IC50 was 0.9 nM.

Regarding `CC1(Cn2cc(Nc3nc(N)nc(-c4cccc(N5CCc6cc(C7CC7)cc(F)c6C5=O)c4CO)n3)cn2)COC1` [Example 261, 2-{3-[4-Amino-6-({1-[(3-methyloxetan-3-yl)methyl]-1H-pyrazol-4-yl}amino)-1,3,5-triazin-2-yl]-2-(hydroxymeth-yl)phenyl}-6-cyclopro-pyl-8-fluoro-3,4-di-hydroisoquinolin-1(1H)-one], the IC50 is 1.5 nM.

Regarding `CCCn1cc(Nc2nc(N)nc(-c3cccc(N4CCc5cc(C6CC6)cc(F)c5C4=O)c3CO)n2)cn1` [Example 262, 2-(3-{4-Amino-6-[(1-pro-pyl-1H-pyrazol-4-yl)amino]-1,3,5-triazin-2-yl}-2-(hydroxymeth-yl)phenyl)-6-cyclopro-pyl-8-fluoro-3,4-dihy-droisoquinolin-1(2H)-one], the IC50 came to 0.8 nM.

Regarding `NC(=O)Cn1cc(Nc2nc(N)nc(-c3cccc(N4CCc5cc(C6CC6)cc(F)c5C4=O)c3CO)n2)cn1` [Example 266, 2-[4-({4-Amino-6-[3-(6-cyclopropyl-8-fluoro-1-oxo-3,4-dihydroiso-quinolin-2(1H)-yl)-2-(hydroxymethyl)phenyl]-1,3,5-triazin-2-yl}amino)-1H-pyrazol-1-yl]acetamide], the 50% inhibitory concentration (IC50) was found to be 1.3 nM.

`Nc1nc(Nc2cc3n(c2)CCNC3=O)nc(-c2cccc(N3CCc4cc(C5CC5)cc(F)c4C3=O)c2CO)n1` [Example 267, 2-(3-{4-Amino-6-[(1-oxo-1,2,3,4-tetrahydro-pyrrolo[1,2-a]pyrazin-7-yl)amino]-1,3,5-tri-azin-2-yl}-2-(hydroxy-methyl)phenyl)-6-cyclo-propyl-8-fluoro-3,4-dihydroisoquinolin-1 (2H)-one]: the IC50 turned out to be 1.5 nM.

Turning to `CN1CCn2cc(Nc3nc(N)nc(-c4cccc(N5CCc6cc(C7CC7)cc(F)c6C5=O)c4CO)n3)cc2C1=O` [Example 268, 2-(3-{4-Amino-6-[(2-meth-yl-1-oxo-1,2,3,4-tetra-hydropyrrolo[1,2-a]pyrazin-7-yl)amino]-1,3,5-triazin-2-yl}-2-(hydroxymethyl)phe-nyl)-6-cyclopropyl-8-fluoro-3,4-dihydroisoquinolin-1(2H)-one], the IC50 stood at 1.2 nM.

The values are drawn from patent US20150011751A1, “NOVEL TRIAZINE DERIVATIVE” (CARNA BIOSCIENCES, INC., priority 2012, published 2015).
